Molecular target: T1, P2X7 receptor (Homo sapiens, UniProt Q99572)
T1 construct: stably expressing the full length P2X7 receptor; expressed in transfected cells
T1 sequence (Q99572 1-595): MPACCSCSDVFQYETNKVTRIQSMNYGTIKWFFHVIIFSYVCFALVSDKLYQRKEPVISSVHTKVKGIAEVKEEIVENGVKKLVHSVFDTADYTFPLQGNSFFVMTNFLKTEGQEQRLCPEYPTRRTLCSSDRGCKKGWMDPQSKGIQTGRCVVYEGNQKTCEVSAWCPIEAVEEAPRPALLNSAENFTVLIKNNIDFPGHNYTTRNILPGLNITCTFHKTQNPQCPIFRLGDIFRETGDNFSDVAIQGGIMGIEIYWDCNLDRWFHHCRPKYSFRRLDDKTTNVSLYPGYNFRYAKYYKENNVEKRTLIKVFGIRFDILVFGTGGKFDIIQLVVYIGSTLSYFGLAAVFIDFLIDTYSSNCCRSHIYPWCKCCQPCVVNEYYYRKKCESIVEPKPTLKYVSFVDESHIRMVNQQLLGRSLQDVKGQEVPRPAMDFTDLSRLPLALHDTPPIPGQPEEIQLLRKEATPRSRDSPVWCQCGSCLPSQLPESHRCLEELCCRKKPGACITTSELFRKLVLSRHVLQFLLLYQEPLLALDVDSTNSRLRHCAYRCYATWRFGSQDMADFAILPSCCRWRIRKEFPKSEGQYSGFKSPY
Assay: Ca++ flux assay (FLIPR) in P2X7-HEK-293 cell line stably expressing the full length P2X7 receptor, Bz-ATP activation
Type: cell-based
Conditions: P2X7-HEK-293 cells; agonist Bz-ATP; fluorescence as total area over 90 seconds; read-out: P2X7 Ca Flux hu IC50
Summary of the method: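 HEK-293 cells stably expressing full-length P2X7 were loaded with Ca++-sensitive dye for 1 h, with compound added during loading. Cells were stimulated with Bz-ATP on FLIPR. Fluorescence was integrated as total area over 90 s, and IC50 was taken as 50% inhibition of the maximal Ca++ response.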

- IC50: 229 nM
Structure (SMILES): Cc1c(Cl)cccc1-n1ccn2c(N(Cc3ccccc3)CC3CC3)nnc2c1=O [Compound 171, 3-(benzyl(cyclopropylmethyl)amino)-7-(3-chloro-2-methylphenyl)-[1,2,4]triazolo[4,3 - a]pyrazin-8(7H)-one]
